Patent publication US6268391A, “Benzylidene-1,3-dihydro-indol-2-one derivatives a receptor tyrosine kinase inhibitors, particularly of Raf kinases” (Glaxo Wellcome Inc., priority 1997, dated 2001)

molecular target: T1, Human cRaf1 (Homo sapiens, UniProt P04049); assay: Raf kinase assay (cRaf1 assay / Raf/MEK cascade assay); assay type: biochemical; conditions: not given
T1 construct: poly-histidine (C); made in house
T1 sequence (P04049 whole entry): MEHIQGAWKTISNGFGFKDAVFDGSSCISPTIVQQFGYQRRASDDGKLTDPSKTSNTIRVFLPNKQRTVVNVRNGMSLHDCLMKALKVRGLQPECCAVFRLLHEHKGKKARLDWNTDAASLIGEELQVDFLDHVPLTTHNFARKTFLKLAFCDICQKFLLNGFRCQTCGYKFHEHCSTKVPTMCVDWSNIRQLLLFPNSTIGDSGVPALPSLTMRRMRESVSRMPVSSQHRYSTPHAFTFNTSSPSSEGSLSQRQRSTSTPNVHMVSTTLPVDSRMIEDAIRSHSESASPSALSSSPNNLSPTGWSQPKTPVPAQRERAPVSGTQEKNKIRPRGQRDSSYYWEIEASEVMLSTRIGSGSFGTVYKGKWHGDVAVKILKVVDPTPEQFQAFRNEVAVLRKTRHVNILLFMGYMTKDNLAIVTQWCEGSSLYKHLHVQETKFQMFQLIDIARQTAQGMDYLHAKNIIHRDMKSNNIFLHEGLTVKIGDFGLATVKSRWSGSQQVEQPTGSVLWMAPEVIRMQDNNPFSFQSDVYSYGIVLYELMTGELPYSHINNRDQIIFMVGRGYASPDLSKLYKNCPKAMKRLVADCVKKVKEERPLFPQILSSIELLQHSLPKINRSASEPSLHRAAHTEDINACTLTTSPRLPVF

SMILES | IC50 [nM]
CN1CCN(C(=O)Oc2c(Br)cc(C=C3C(=O)Nc4ccc(I)cc43)cc2Br)CC1 [Example 153, 2,6-Dibromo-4-[(5-iodo-2-oxo-1,2-dihydro-3H-indol-3-ylidene)methyl]phenyl 4-methyltetrahydro-1(2H)-pyrazinecarboxylate] | 10000 to 100000

same assay, conditions: Table 3; read-out: Raf Kinase activity

SMILES | IC50 [nM]
O=C1Nc2ccc(C(=O)CCl)cc2C1=Cc1cc(I)c(O)c(I)c1 [Example 114, 5-(2-Chloro-acetyl)-3-(3,5-diiodo-4-hydroxy-benzylidene)-1,3-dihydro-indol-2-one] | < 1000
CCN(CC)S(=O)(=O)c1ccc2c(c1)C(=Cc1cc(Cl)c(O)c(Cl)c1)C(=O)N2 [Example 115, 3-(3,5-Dichloro-4-hydroxy-benzylidene)-2-oxo-2,3-dihydro-1H-indol-5-sulfonic acid diethylamide] | < 1000
O=C1Nc2ccc(S(=O)(=O)N3CCOCC3)cc2C1=Cc1cc(Cl)c(O)c(Cl)c1 [Example 116, 3-(3,5-Dichloro-4-hydroxy-benzylidene)-5-(morpholine-4-sulfonyl)-1,3-dihydro-indol-2-one] | < 1000
O=C1Nc2ccc(-c3csc(-c4ccccc4)n3)cc2C1=Cc1cc(Cl)c(O)c(Cl)c1 [Example 124, 3-(3,5-Dichloro-4-hydroxy-benzylidene)-5-(2-phenyl-thiazol-4-yl)-1,3-dihydro-indol-2-one] | < 1000
O=C1Nc2ccc(-c3csc(Nc4ccccc4)n3)cc2C1=Cc1cc(Cl)c(O)c(Cl)c1 [Example 127, 3-(3,5-Dichloro-4-hydroxy-benzylidene)-5-(2-phenylamino-thiazol-4-yl)-1,3-dihydro-indol-2-one] | < 1000
O=C1Nc2ccc(C3=NNC(=S)NC3)cc2C1=Cc1cc(Cl)c(O)c(Cl)c1 [Example 128, 3-(3,5-Dichloro-4-hydroxy-benzylidene)-5-(3-thioxo-2,3,4,5-tetrahydro-[1,2,4]-triazine-6-yl)-1,3-dihydro-indol-2-one] | < 1000
CNc1nc(-c2ccc3c(c2)C(=Cc2cc(Cl)c(O)c(Cl)c2)C(=O)N3)cs1 [Example 141] | < 1000
Cc1nc(-c2ccc3c(c2)C(=Cc2cc(Br)c(OC(=O)N(CCO)CCO)c(Br)c2)C(=O)N3)cs1 [Example 144, N[bis(2-Hydroxyethyl)]-carbamic acid 2,6 dibromo-4-[5-(2-methyl-thiazol-4-yl)-2-oxo-1,2-dihydro-indol-3-ylidenemethyl]-phenyl ester] | 10000 to 100000
O=C(OCc1ccccc1)Oc1c(Br)cc(C=C2C(=O)Nc3ccc(Cl)cc32)cc1Br [Example 146, Benzyl 2,6-dibromo-4-[(5-chloro-2-oxo-1,2-dihydro-3H-indol-3-ylidene)methyl]phenyl carbonate] | 10000 to 100000
CC(C)COC(=O)Oc1c(Br)cc(C=C2C(=O)Nc3ccc(Cl)cc32)cc1Br [Example 148, 2,6-Dibromo-4-[(5-chloro-2-oxo-1,2-dihydro-3H-indol-3-ylidene)methyl]phenyl isobutyl carbonate] | 10000 to 100000
O=C(OCc1cccnc1)Oc1c(Br)cc(C=C2C(=O)Nc3ccc(Cl)cc32)cc1Br [Example 149, 2,6-Dibromo-4-[(5-chloro-2-oxo-1,2-dihydro-3H-indol-3-ylidene)methyl]phenyl 3-pyridinylmethyl carbonate] | 10000 to 100000
CC(C)(C)C(=O)OCOc1c(Br)cc(C=C2C(=O)Nc3ccc(Cl)cc32)cc1Br [Example 150, 2,6-Dibromo-4-[(5-chloro-2-oxo-1,2-dihydro-3H-indol-3-ylidene)methyl]phenoxymethyl pivalate] | 10000 to 100000
O=C1Nc2ccc(I)cc2C1=Cc1cc(Br)c(OC(=O)N2CCOCC2)c(Br)c1 [Example 151, 2,6-Dibromo-4-[(5-iodo-2-oxo-1,2-dihydro-3H-indol-3-ylidene)methyl]phenyl 4-morpholinecarboxylate] | 10000 to 100000
O=C(NCCOCCO)Oc1c(Br)cc(C=C2C(=O)Nc3ccc(I)cc32)cc1Br [Example 152, 2,6-Dibromo-4-[(5-iodo-2-oxo-1,2-dihydro-3H-indol-3-ylidene)methyl]phenyl N-[2-(2-hydroxyethoxy)ethyl]carbamate] | < 1000
CCN(CC)C(=O)Oc1c(Br)cc(C=C2C(=O)Nc3ccc(I)cc32)cc1Br [Example 154, 2,6-Dibromo-4-[(5-iodo-2-oxo-1,2-dihydro-3H-indol-3-ylidene)methyl]phenyl N,N-diethylcarbamate] | 10000 to 100000

Now from value to compound:

IC50 [nM] | SMILES
< 1000 | CN1CCN(CC(=O)c2ccc3c(c2)C(=Cc2cc(Br)c(O)c(Br)c2)C(=O)N3)CC1 [Example 110, 3-(3,5-Dibromo-4-hydroxy-benzylidene)-5-[2-(4-methyl-piperazin-1-yl)-acetyl]-1,3-dihydro-indol-2-one]
1000 to 10000 | O=C1Nc2cc(-c3ccccc3)ccc2C1=Cc1cc(Br)c(O)c(Br)c1 [Example 112, 3-(3,5-Dibromo-4-hydroxy-benzylidene)-6-phenyl-1,3-dihydro-indol-2-one]
1000 to 10000 | CC(C)Oc1ccc2c(c1)NC(=O)C2=Cc1cc(Br)c(O)c(Br)c1 [Example 113, 3-(3,5-Dibromo-4-hydroxy-benzylidene)-6-isopropoxy-1,3-dihydro-indol-2-one]
< 1000 | CC(=O)N1CCc2cc3c(cc21)C(=Cc1cc(Br)c(O)c(Br)c1)C(=O)N3 [Example 118, 5-Acetyl-3-(3,5-dibromo-4-hydroxy-benzylidene)-3,5,6,7-tetrahydro-1H-pyrrolo[2,3-f]indol-2-one]
< 1000 | CCc1ccc2c(c1)C(=Cc1cc(Br)c(O)c(Br)c1)C(=O)N2 [Example 120, 3-(3,5-Dibromo-4-hydroxy-benzylidine)-5-ethyl-1,3-dihydro-indol-2-one]
< 1000 | O=C1Nc2cc(Br)ccc2C1=Cc1cc(Br)c(O)c(Br)c1 [Example 123, 6-Bromo-3-(3,5-dibromo-4-hydroxy-benzylidene)-1,3-dihydro-indol-2-one]
< 1000 | O=C1Nc2ccc(-c3csc(-c4ccccc4)n3)cc2C1=Cc1cc(Br)c(O)c(Br)c1 [Example 125, 3-(3,5-Dibromo-4-hydroxy-benzylidene)-5-(2-phenyl-thiazol-4-yl)-1,3-dihydro-indol-2-one]
< 1000 | O=C1Nc2ccc(-c3csc(Nc4ccccc4)n3)cc2C1=Cc1cc(Br)c(O)c(Br)c1 [Example 126, 3-(3,5-Dibromo-4-hydroxy-benzylidene)-5-(2-phenylamino-thiazol-4-yl)-1,3-dihydro-indol-2-one]
< 1000 | O=C1Nc2ccc(C3=NNC(=S)NC3)cc2C1=Cc1cc(Br)c(O)c(Br)c1 [Example 129, 3-(3,5-Dibromo-4-hydroxy-benzylidene)-5-(3-thioxo-2,3,4,5-tetrahydro-[1,2,4]-triazine-6-yl)-1,3-dihydro-indol-2-one]
< 1000 | O=C1Nc2ccc3[nH]nnc3c2C1=Cc1cc(Br)c(O)c(Br)c1 [Example 132, 8-(3,5-Dibromo-4-hydroxy-benzylidene)-6,8-dihydro-3H-1,2,3,6-tetraaza-as-indacen-7-one]
< 1000 | Nc1nc(-c2ccc3c(c2)C(=Cc2cc(Cl)c(O)c(Cl)c2)C(=O)N3)cs1 [Example 134, 5-(2-Amino-thiazol-4-yl)-3-(3,5-dichloro-4-hydroxy-benzylidene)-1,3-dihydro-indol-2-one]
< 1000 | Nc1nc2ccc3c(c2s1)C(=Cc1cc(Br)c(O)c(Br)c1)C(=O)N3 [Example 135, 2-Amino-8-(3,5-dibromo-4-hydroxy-benzylidene)-6,8-dihydro-1-thia-3,6-diaza-as-indacen-7-one]
< 1000 | CC(=O)Nc1nc(-c2ccc3c(c2)C(=Cc2cc(Br)c(O)c(Br)c2)C(=O)N3)cs1 [Example 136, 5-(N-Acetyl-2-amino-thiazol-4-yl)-3-(3,5-dibromo-4-hydroxy-benzylidene)-1,3-dihydro-indol-2-one]
< 1000 | NC(=O)c1ccc2c(c1)C(=Cc1cc(Br)c(O)c(Br)c1)C(=O)N2 [Example 137, 3-(3,5-Dibromo-4-hydroxy-benzylidene)-2-oxo-2,3-dihydro-1H-indol-5-carboxylic acid amide]
< 1000 | O=C1Nc2ccc(-c3cccnc3)cc2C1=Cc1cc(Br)c(O)c(Br)c1 [Example 138, 3-(3,5-Dibromo-4-hydroxy-benzylidene)-5-pyrid-3-yl-1,3-dihydro-indol-2-one]
< 1000 | O=C1Nc2ccc(-c3ccsc3)cc2C1=Cc1cc(Br)c(O)c(Br)c1 [Example 139, 3-(3,5-Dibromo-4-hydroxy-benzylidene)-5-thiophen-3-yl-1,3-dihydro-indol-2-one]
< 1000 | CNc1nc(-c2ccc3c(c2)C(=Cc2cc(Br)c(O)c(Br)c2)C(=O)N3)cs1 [Example 140]
< 1000 | O=C1Nc2ccc(-c3nnn[nH]3)cc2C1=Cc1cc(Br)c(O)c(Br)c1 [Example 142, 3-(3,5-Dibromo-4-hydroxy-benzylidene)-5-(1H-tetrazol-5-yl)-1,3-dihydro-indol-2-one]
< 1000 | Cc1nnc(-c2ccc3c(c2)C(=Cc2cc(Br)c(O)c(Br)c2)C(=O)N3)o1 [Example 145, 3-(3,5-Dibromo-4-hydroxy-benzylidene)-5-(5-methyl-[1,3,4]oxadiazol-2-yl)-1,3-dihydro-indol-2-one]
10000 to 100000 | CCOC(=O)Oc1c(Br)cc(C=C2C(=O)Nc3ccc(Cl)cc32)cc1Br [Example 147, 2,6-Dibromo-4-[(5-chloro-2-oxo-1,2-dihydro-3H-indol-3-ylidene)methyl]phenyl ethyl carbonate]
< 1000 | O=C1Nc2ccc(C(=O)O)cc2C1=Cc1cc(Br)c(O)c(Br)c1 [Example 156, 3-(3,5-Dibromo-4-hydroxy-benzylidene)-2-oxo-2,3-dihydro-1H-indol-5-carboxylic acid]
< 1000 | O=C1Nc2ccc(S(=O)(=O)N(CCO)CCO)cc2C1=Cc1cc(Br)c(O)c(Br)c1 [Example 157, 3-[(3,5-Dibromo-4-hydroxyphenyl)methylidene]-N,N-bis(2-hydroxyethyl)-2-oxo-5-indolinesulfonamide]
< 1000 | O=C1Nc2ccc(NC(=O)c3ccccc3)cc2C1=Cc1cc(Br)c(O)c(Br)c1 [Example 158, N-3-[(3,5-Dibromo-4-hydroxyphenyl)methylidene]-2-oxo-2,3-dihydro-1H-indol-5-ylbenzamide]
< 1000 | CC(=O)Nc1ccc2c(c1)C(=Cc1cc(Br)c(O)c(Br)c1)C(=O)N2 [Example 159]
